Measured values: patent US7611721B1, “Adjuvant combination formulations” (priority 2000, dated 2009)
Read-outs that look alike come from different tables or passages of the source.

Tests used:
[1] = tested on: Neisseria gonorrhoeae Porin B protein; test: Reciprocal anti-Porin B protein serum IgG endpoint subclass titers; format: in vivo, Swiss-Webster mice; details: for Reciprocal anti-Porin B Protein IgG1 endpoint titer, Week 3 / Reciprocal anti-Porin B Protein IgG1 endpoint titer, Week 6 / Reciprocal anti-Porin B Protein IgG2a endpoint titer, Week 3 / Reciprocal anti-Porin B Protein IgG2a endpoint titer, Week 6 / Reciprocal anti-Porin B Protein IgG endpoint titer, Week 3 / Reciprocal anti-Porin B Protein IgG endpoint titer, Week 6: 1 μg Porin B s.c. week 0 and 4
Description: Outbred Swiss-Webster mice were divided into five groups of ten mice each. Each group received 1 μg of recombinant Porin B protein (from strain FA1090 with 16 amino acids at the amino-terminus from a phage, followed by the mature form of the Porin B protein). […] Mice were immunized subcutaneously in the rump with a total volume of 0.2 ml, divided equally into each of two sites at the base of the tail/rump. Immunizations were administered at week 0 and week 4.
Mice were bled the day prior to each immunization, and at 13 days after the final immunization. Serum was analyzed from pools from mice within groups. […] All day 0 pre-immunization titers were less than 50.
Individual week 6 IgG titer geometric means against the recombinant Porin B protein were also determined.
(§1) Outbred Swiss-Webster mice were divided into six groups of five mice each. Each group received 1 μg of recombinant Porin B protein (from strain FA1090 with 16 amino acids at the amino-terminus from a phage, followed by the mature form of the Porin B protein). […] Mice were immunized subcutaneously in the rump with a total volume of 0.2 ml. Immunizations were administered at week 0 and week 4.
(§2) Mice were bled the day prior to each immunization, and at 13 days after the final immunization. Serum was analyzed from pools from mice within groups. […] All day 0 pre-immunization titers were less than 50. The starting dilution for vaginal lavage analysis was 1/5.

[2] = tested on: Neisseria gonorrhoeae Porin B protein; test: Vaginal wash anti-Porin B protein IgG and IgA titers; format: in vivo, Swiss-Webster mice; details: Experiment 11; Swiss-Webster; starting dilution 1/5
Description: as §1, §2

spleen cells [3] = format: cell-based, Balb/c mice; details: for Spleen cell proliferation index normalized to ConA, Con A 5 μg/ml / Spleen cell proliferation index normalized to ConA, HIV Peptide 1.1 μg/ml / Spleen cell proliferation index normalized to ConA, HIV Peptide 3.3 μg/ml / Spleen cell proliferation index normalized to ConA, HIV Peptide 10 μg/ml / Spleen cell proliferation index normalized to ConA, Lysozyme 10 μg/ml: Experiment 2, 96 hours culture; for Spleen cell proliferation index normalized to ConA, HIV Peptide 1.1 μg/ml / Spleen cell proliferation index normalized to ConA, HIV Peptide 3.3 μg/ml / Spleen cell proliferation index normalized to ConA, HIV Peptide 10 μg/ml / Spleen cell proliferation index normalized to ConA, Lysozyme 10 μg/ml: values in parentheses are less than unstimulated cells
Description: (§3) For proliferation assays and in vitro cytokine analysis, spleen cells were obtained from mice at the indicated time points. Single cell suspensions were prepared from pools of 3-5 mice as indicated in Results. For proliferation and cytokine analysis, cells were suspended in round bottom 96 well culture plates precoated overnight with HIV peptide antigens, control proteins, or RPMI-10 only. Spleen cells were added at 5×10^5 cells/well using culture medium having 2× supplements. Cell culture supernatants were harvested from triplicate wells for cytokine analysis three or six days after culture initiation. Immediately after supernatant harvest, cultures were pulsed with ^3H-thymidine for 18-24 hours, and harvested to quantify cell proliferation.
Groups of five Balb/c female mice were immunized with 25 μg T1SP10MN(A) (−Cys) and the indicated adjuvants on days 0 and 28. Spleen cells were established in culture on day 56, and harvested for measurement of ^3H-thymidine incorporation 96 hours later. Mice were immunized with 50 ng IL-12, […], 50 μg MPL™ in an aqueous formulation, or as a stable emulsion with 2% SE. Data are presented as the delta cpm values as compared to proliferation values measured from cells grown in culture without stimulation.
Cells were cultured for a total of 96 hours. ^3H-thymidine was added to cultures for the last 18 hours. Data are presented as a proliferation index normalized to cells stimulated in culture with ConA ([mean cpm Antigen/mean cpm ConA]−[mean cpm medium/mean cpm ConA])×100. As a result, cells cultured in medium have a background proliferation of 0. Proliferation values less than cells grown in culture unstimulated are in parentheses.

RSV F protein = details: pooled serum n=5 Balb/c
spleen cells [4] = test: Secretion of interferon-gamma by spleen cells (ELISA); format: cell-based, Balb/c mice; details: for Secretion of Interferon-gamma, Con A 5 μg/ml / Secretion of Interferon-gamma, HIV Peptide 1.1 μg/ml / Secretion of Interferon-gamma, HIV Peptide 3.3 μg/ml / Secretion of Interferon-gamma, HIV Peptide 10 μg/ml: Experiment 2, 96 hours culture, after subtraction of lysozyme value; for Secretion of Interferon-gamma, HIV Peptide 1.1 μg/ml / Secretion of Interferon-gamma, HIV Peptide 3.3 μg/ml / Secretion of Interferon-gamma, HIV Peptide 10 μg/ml: bd = below limit of detection; for Secretion of Interferon-gamma, Con A 1 μg/ml: Experiment 1
Description: as §3
For cytokine analysis, cell culture supernatants were added to wells coated with BVD6-11B11 (for anti-IL4), or R4-6A2 (for interferon-gamma). After incubation and washing, wells were developed using biotin-labeled BVD6-24G2 (for IL4) or XMG 1.2 (for interferon-gamma). The concentration of cytokines was determined using a standard curve prepared from recombinant murine interferon-gamma or interleukin-4. All cytokine reagents were purchased from Pharmingen (San Diego, Calif.).
Interferon-gamma secreted into culture by spleen cells stimulated with 25 μg T1SP10MN(A) (−Cys). Spleen cells were harvested from pools of five Balb/c female mice and cultured with the indicated antigenic stimuli (the same as in Example 6) for either three or six days. Interferon-gamma levels were determined by ELISA, and compared to a standard having a known concentration. Blank wells indicate that the assay could not detect Interferon-gamma from those culture conditions. The lower limit of detection sensitivity was 4 picograms/ml.
Cells were cultured for a total of 96 hours. Cell culture supernatants were analyzed for interferon-gamma by ELISA. All values were after subtraction from those determined from supernatants of cells stimulated with 10 μg of lysozyme. Results which were below the limit of detection, after subtraction from stimulation induced with lysozyme are indicated as “bd”. The adjuvants were the same as those in Example 12.

[5] = Experiment 10, pooled serum n=10 Swiss-Webster
[6] = Experiment 11, pooled serum n=5 Swiss-Webster
[7] = Experiment 12, 3 μg F protein i.m. week 0 and 4
[8] = Experiment 13, F protein week 0 and 4
[9] = Experiment 14, 3 μg F protein s.c. week 0 and 4
[10] = Experiment 1, immunized days 0 and 28, culture day 56, 96 hours

RSV F protein, sequence (P03420 137-574): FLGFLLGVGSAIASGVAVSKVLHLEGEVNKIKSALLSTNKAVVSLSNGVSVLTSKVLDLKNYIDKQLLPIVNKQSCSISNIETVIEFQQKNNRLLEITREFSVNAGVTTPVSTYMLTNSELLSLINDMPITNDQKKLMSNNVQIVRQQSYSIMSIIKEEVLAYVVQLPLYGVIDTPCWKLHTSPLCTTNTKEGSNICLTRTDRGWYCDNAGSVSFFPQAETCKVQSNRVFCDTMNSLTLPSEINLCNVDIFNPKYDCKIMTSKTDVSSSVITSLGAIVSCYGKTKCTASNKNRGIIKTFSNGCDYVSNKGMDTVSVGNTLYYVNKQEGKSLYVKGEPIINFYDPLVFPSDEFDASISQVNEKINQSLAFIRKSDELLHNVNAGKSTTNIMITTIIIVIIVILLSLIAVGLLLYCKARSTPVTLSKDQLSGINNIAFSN

## 3-O-deacylated monophosphoryl lipid A [MPL ™]
[1]; [5]
  Reciprocal anti-Porin B Protein IgG1 endpoint titer, Week 3: 171
  Reciprocal anti-Porin B Protein IgG1 endpoint titer, Week 6: 23,465
  Reciprocal anti-Porin B Protein IgG2a endpoint titer, Week 3: 318
  Reciprocal anti-Porin B Protein IgG2a endpoint titer, Week 6: 20,422
  Reciprocal anti-Porin B Protein IgG endpoint titer, Week 3: 3,381
  Reciprocal anti-Porin B Protein IgG endpoint titer, Week 6: 431,529
[1]; Experiment 10, week 6, Swiss-Webster
  Individual IgG titers against recombinant Porin B protein, Geometric Mean: 217,114
[1]; [6]
  Reciprocal anti-Porin B Protein IgG1 endpoint titer, Week 3: 500
  Reciprocal anti-Porin B Protein IgG1 endpoint titer, Week 6: 76,640
  Reciprocal anti-Porin B Protein IgG2a endpoint titer, Week 3: 1,925
  Reciprocal anti-Porin B Protein IgG2a endpoint titer, Week 6: 60,910
  Reciprocal anti-Porin B Protein IgG endpoint titer, Week 3: 5,656
  Reciprocal anti-Porin B Protein IgG endpoint titer, Week 6: 265,127
[2]
  Vaginal Wash IgA titer, anti-Porin B Protein: 5
  Vaginal Wash IgG titer, anti-Porin B Protein: 54
Spleen cells [3]
  Spleen cell proliferation index normalized to ConA, Con A 5 μg/ml: 99.2
  Spleen cell proliferation index normalized to ConA, HIV Peptide 1.1 μg/ml: 0.5
  Spleen cell proliferation index normalized to ConA, HIV Peptide 3.3 μg/ml: 1.4
  Spleen cell proliferation index normalized to ConA, HIV Peptide 10 μg/ml: 1.0
  Spleen cell proliferation index normalized to ConA, Lysozyme 10 μg/ml: 0.4
RSV F protein; [7]
  Reciprocal anti-RSV F Protein IgG1 endpoint titer, Week 3: 28,134
  Reciprocal anti-RSV F Protein IgG1 endpoint titer, Week 6: 900,863
  Reciprocal anti-RSV F Protein IgG2a endpoint titer, Week 3: 11,882
  Reciprocal anti-RSV F Protein IgG2a endpoint titer, Week 6: 1,057,108
  Reciprocal anti-RSV F Protein IgG endpoint titer, Week 3: 124,197
  Reciprocal anti-RSV F Protein IgG endpoint titer, Week 6: 3,310,838
RSV F protein; [8]
  Reciprocal anti-RSV F Protein IgG1 endpoint titer, Week 3: 21,930
  Reciprocal anti-RSV F Protein IgG1 endpoint titer, Week 6: 1,384,927
  Reciprocal anti-RSV F Protein IgG2a endpoint titer, Week 3: 61,253
  Reciprocal anti-RSV F Protein IgG2a endpoint titer, Week 6: 955,685
  Reciprocal anti-RSV F Protein IgG endpoint titer, Week 3: 104,702
  Reciprocal anti-RSV F Protein IgG endpoint titer, Week 6: 6,153,833
RSV F protein; [9]
  Reciprocal anti-RSV F Protein IgG1 endpoint titer, Week 3: 55,767
  Reciprocal anti-RSV F Protein IgG1 endpoint titer, Week 6: 402,128
  Reciprocal anti-RSV F Protein IgG2a endpoint titer, Week 3: 8,397
  Reciprocal anti-RSV F Protein IgG2a endpoint titer, Week 6: 170,252
  Reciprocal anti-RSV F Protein IgG endpoint titer, Week 3: 26,179
  Reciprocal anti-RSV F Protein IgG endpoint titer, Week 6: 3,467,097
Spleen cells [4]
  Secretion of Interferon-gamma, Con A 5 μg/ml: 203 units/ml
  Secretion of Interferon-gamma, HIV Peptide 1.1 μg/ml: bd
  Secretion of Interferon-gamma, HIV Peptide 3.3 μg/ml: bd
  Secretion of Interferon-gamma, HIV Peptide 10 μg/ml: 5 units/ml

B1: GM-CSF: Recombinant murine granulocyte macrophage colony stimulating factor (protein, UniProt P01587 18-141, looked up)
Granulocyte-macrophage …: APTRSPITVTRPWKHVEAIKEALNLLDDMPVTLNEEVEVVSNEFSFKKLTCVQTRLKIFEQGLRGNFTKLKGALNMTASYYQTYCPPTPETDCETQVTTYADFIDSLKTFLTDIPFECKKPGQK
Spleen cells [3]; [10]
  Spleen cell proliferation, Con A 1 μg/ml: 55,578 delta cpm
  Spleen cell proliferation, HIV Peptide 1.1 μg/ml: 14,249 delta cpm
  Spleen cell proliferation, HIV Peptide 3.3 μg/ml: 19,784 delta cpm
  Spleen cell proliferation, HIV Peptide 10 μg/ml: 25,821 delta cpm
Spleen cells [3]
  Spleen cell proliferation index normalized to ConA, Con A 5 μg/ml: 99.0
  Spleen cell proliferation index normalized to ConA, HIV Peptide 1.1 μg/ml: 1.6
  Spleen cell proliferation index normalized to ConA, HIV Peptide 3.3 μg/ml: 2.7
  Spleen cell proliferation index normalized to ConA, HIV Peptide 10 μg/ml: 6.8
  Spleen cell proliferation index normalized to ConA, Lysozyme 10 μg/ml: 0.1
Spleen cells [4]; Six Day Cultures
  Secretion of Interferon-gamma, Con A 1 μg/ml: 7.3 picograms/ml
Spleen cells [4]; Three Day Cultures, detection limit 4 picograms/ml
  Secretion of Interferon-gamma, Con A 1 μg/ml: 17.6 picograms/ml
Spleen cells [4]
  Secretion of Interferon-gamma, Con A 5 μg/ml: 167 units/ml
  Secretion of Interferon-gamma, HIV Peptide 1.1 μg/ml: 4 units/ml
  Secretion of Interferon-gamma, HIV Peptide 3.3 μg/ml: 3 units/ml
  Secretion of Interferon-gamma, HIV Peptide 10 μg/ml: 2 units/ml
